Here are results for two molecules from patent US11542288B2, “Antiviral compounds” (priority 2020, dated 2023).

The term EC50 denotes the concentration at which the effect is half-maximal. One may read the Ki as the equilibrium dissociation constant of an inhibitor or competing ligand from its target.

One experiment relates to wild-type HIV-1. In words: HIV antiviral assay (293T / TZM-BL luciferase). It is filed as cell-based. To be noted: read-out: Antiviral WT EC50.
Experiment [1] deals with T1, HTLV-1 protease (Human T-cell leukemia virus type I, UniProt Q82134, L40I). It is filed as biochemical. The arrangement: This protease construct has 9 amino acids removed from the C-terminus to facilitate crystallization; made in house; host or cells: Escherichia coli. To be noted: 1:1 ratio inhibitor to protease (1 μM), 60 min, 37° C.
Experiment [2] deals with SP cells (chronically infected with HTLV-1). The experiment is described as follows: SP cell Gag processing (HTLV-1 maturation) immunoblot. The experiment is classed as cell-based. To be noted: for amount of full-length (FL) Gag and larger size cleavage intermediates (CI): SP cell lysates and supernatants, 50 μM or 100 μM; for FL Gag band percentage (mean±SEM): 48 h. As to the method: SP Cell Culture and Protease Inhibition Treatments. SP cells were cultured in RPMI (Invitrogen, Carlsbad, Calif., USA) containing 20% HyClone (FC3) from Thermo Scientific (Waltham, Mass.) and 1% penicillin-streptomycin from Life Technologies (Grand Island, N.Y., USA) and supplemented with human IL-2 (Roche Diagnostics, Indianapolis, Ind., USA) at a concentration of 10 U/mL. Cells were grown to a density of […], and the media was exchanged into media containing the drug treatment at the two concentrations tested (50 μM and 100 μM). DMSO was used as a treatment control at the max concentration (0.01% v/v) as used for the sample with the highest inhibitor concentrations. Cells were treated for 48 h in an incubator at 37° C. with 5% CO2. To harvest the samples, the cell culture supernatant and cells were separated with a 5 min spin at 1000 g. The cell culture supernatant was filtered through a 0.22 μm syringe filter and ultracentrifuged over an 8% Optiprep cushion (Millipore Sigma, USA) (109,000 g for 1.5 hat 4° C.) in a 50.1 Ti rotor (Beckman Coulter, USA). The resulting viral pellet was resuspended in 200 μL of RIPA buffer (150 mM NaCl, 1% (v/v) Nonidet P-40, 0.5% sodium deoxycholate, 0.1% SDS, 25 mM Tris pH 7.4) supplemented with a cOmplete, Mini, EDTA-free cellular Protease Inhibitor Cocktail (Roche Diagnostics, Indianapolis, Ind., USA). The SP cell pellet was washed once with phosphate buffered saline (PBS) and resuspended in a final volume of 200 μL of a RIPA buffer cOmplete, Mini, EDTA-free cellular Protease Inhibitor Cocktail (Roche Diagnostics, Indianapolis, Ind., USA). Immunoblot samples were then prepared and detected as described in the previous method section. Gel band quantification analysis was performed using Fiji. A one-tailed t test for two independent means (95% confidence) was used to determine if the FL Gag band from the various drug treatments in the immunoblot analysis was statistically different from the DMSO controls.
To further validate inhibition of HTLV-1 protease, SP cells (which are chronically infected with HTLV-1) were treated with the same inhibitors (FIG. 20). The SP cell line harbors low numbers of HTLV-1 proviruses and produces virus particles that incorporate full-length Gag, which makes SP an ideal cell culture system for testing the inhibition of HTLV-1 maturation. Gag cleavage products were detected by using a CA (p24) primary antibody in both SP cell lysates and virus particles released in the cell culture supernatants. […] For the Ex.7 treatment of the viral particles produced from the SP cells, the FL Gag band percentage was 5.8±2.8% and 12.9±3.1% (mean±SEM) for 50 μM and 100 μM treatments, respectively (FIGS. 21, 23).
(In western blotting, separated proteins are transferred to a membrane and probed.)

The next experiment deals with T2, HIV-1 protease 10 Mutant (Human immunodeficiency virus type 1 group M subtype B, UniProt P12497).
T2 construct: onto NL4-3 wild-type protease on a pET11a plasmid with codon optimization for protein expression in Escherichia coli; A Q7K mutation was included to prevent autoproteolysis
The experiment is described as follows: HIV enzyme inhibition assay (Ki), 10 Mutant variant. The settings on record: drug-resistant protease variant 10 Mutant. The experiment is classed as biochemical.

The target in the next experiment is T3, HIV-1 protease 11 Mutant (Human immunodeficiency virus type 1 group M subtype B, UniProt P12497).
T3 construct: onto NL4-3 wild-type protease on a pET11a plasmid with codon optimization for protein expression in Escherichia coli; A Q7K mutation was included to prevent autoproteolysis
In words: HIV enzyme inhibition assay (Ki), 11 Mutant variant. The experiment is classed as biochemical. To be noted: drug-resistant protease variant 11 Mutant.

Experiment [3] concerns the target T1, HTLV-1 protease. To be noted: HTLV-1 protease.
The target in experiment [4] is T1, HTLV-1 protease. The experiment is described as follows: biochemical.
The target of a further experiment is T4, HIV-1 protease I84V (Human immunodeficiency virus type 1 group M subtype B, UniProt P12497, I572V/Q495K).
T4 construct: onto NL4-3 wild-type protease on a pET11a plasmid; made in house
The experiment is described as follows: HIV enzyme inhibition assay (Ki), I84V variant. It is filed as biochemical. To be noted: drug-resistant protease variant I84V.

The target in a further experiment is T5, HIV-1 protease I50V/A71V (Human immunodeficiency virus type 1 group M subtype B, UniProt P12497, A559V/I538V/Q495K).
T5 construct: onto NL4-3 wild-type protease on a pET11a plasmid; made in house
In words: HIV enzyme inhibition assay (Ki), I50V/A71V variant. The experiment is classed as biochemical. The settings on record: drug-resistant protease variant I50V/A71V.

The next experiment addresses HIV-1 protease KY24 (Human immunodeficiency virus type 1, UniProt P12497). To be noted: read-out: Ki KY24; drug-resistant protease variant KY24.
The target of another experiment is T6, HIV-1 protease 8 Mutant (Human immunodeficiency virus type 1 group M subtype B, UniProt P12497).
T6 construct: onto NL4-3 wild-type protease on a pET11a plasmid with codon optimization for protein expression in Escherichia coli; A Q7K mutation was included to prevent autoproteolysis
In words: HIV enzyme inhibition assay (Ki), 8 Mutant variant. The experiment is classed as biochemical. The settings on record: drug-resistant protease variant 8 Mutant.

`CC(C)CN(C[C@@H](O)[C@H](Cc1ccccc1)NC(=O)O[C@H]1CO[C@H]2OCC[C@H]21)S(=O)(=O)c1ccc(N)cc1` [DRV, darunavir, reference compound]: in the experiment with wild-type HIV-1, the EC50 amounted to 4.75 nM. The “inhibition of Gag cleavage and VLP maturation” value at HTLV-1 protease [1] was “effectively inhibited Gag cleavage and VLP maturation”. Also, in experiment [2], the “amount of full-length (FL) Gag and larger size cleavage intermediates (CI)” value was “increased”.

In the case of `CCOP(=O)(COc1ccc(C[C@H](NC(=O)O[C@H]2CO[C@H]3OCC[C@H]32)[C@H](O)CN(CC(CC)CC)S(=O)(=O)c2ccc(N)cc2)cc1)OCC` [Example 7, (3R,3aS,6aR)-hexahydrofuro[2,3-b]furan-3-yl ((2S,3R)-4-((4-amino-N-(2-ethylbutyl)phenyl)sulfonamido)-1-(4-((diethoxyphosphoryl)methoxy)phenyl)-3-hydroxybutan-2-yl)carbamate], the EC50 in the experiment on wild-type HIV-1 is 16 nM. The Ki was 51.6 ± 5.5 nM on HIV-1 protease 10 Mutant; 106 ± 7 nM at HIV-1 protease 11 Mutant; 30 ± 10 nM at HTLV-1 protease [4]; below 5 pM at HIV-1 protease I84V; below 5 pM on HIV-1 protease I50V/A71V; 1.08 ± 0.06 nM at HIV-1 protease KY24. On HIV-1 protease 8 Mutant, affinity was put at a Ki of 4.71 ± 0.73 nM. Further, on HTLV-1 protease [1], the “inhibition of Gag cleavage and VLP maturation” value was “effectively inhibited Gag cleavage and VLP maturation”. Further, the “fold improvement of Ki compared to DRV” value at HTLV-1 protease [3] (relative to DRV) amounted to 26 fold. Further, the “fold better inhibition than UM6” value at HTLV-1 protease [3] (relative to UM6) worked out at 4 fold. Also, the “FL Gag band percentage (mean±SEM)” value in [2] (SP cell lysate, 50 μM) is given as 32.4±15.5%; in [2] (SP cell lysate, 100 μM), 41.0±13.7%; in [2] (viral particles produced from SP cells, 50 μM) it was 5.8±2.8%; in experiment [2] (viral particles produced from SP cells, 100 μM), 12.9±3.1%. In addition, the “amount of full-length (FL) Gag and larger size cleavage intermediates (CI)” value in experiment [2] is “increased”.
